The values below come from PMC11992225, “Antibacterial compounds against non-growing and intracellular bacteria” (npj Antimicrobials and Resistance, 2025).

One assay concerns E. coli CFT073 (UPEC). The assay is described as follows: MIC, standard microdilution assay, growing UPEC. To be noted: E. coli. It counts as cell-based, Escherichia coli. The procedure, abridged:
(§1)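 Broth microdilution was used throughout. UPEC, P. aeruginosa and S. aureus were tested in CA-MHB buffered with 40 mM HEPES (pH 7.4); UPEC was additionally tested in LPM with 30 mM MES (pH 5.5). S. flexneri was grown in TSB. All determinations were run in triplicate.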

Another assay relates to P. aeruginosa DSM1117. The assay is described as follows: MIC, standard microdilution assay, growing P. aeruginosa. The class given is cell-based, Pseudomonas aeruginosa. To be noted: P. aeruginosa. The essentials:
as §1
On the technique in general: Broth dilution looks for growth in wells or tubes with falling amounts of substance.

The subject of the next assay is S. aureus DSM2569. The assay is described as follows: MIC, standard microdilution assay, growing S. aureus. It counts as cell-based, Staphylococcus aureus. Conditions: S. aureus, CA-MHB pH 7.4, read-out: MIC (μM) CA-MHB. The essentials: as §1
Another assay relates to S. flexneri 5a M90T. The assay is described as follows: MIC in tryptic soy broth, S. flexneri. The class given is cell-based, Shigella flexneri. Conditions: for MIC: Shigella flexneri, 5AM90T, read-out: MIC (μM) TSB. The procedure, abridged: as §1
For a further assay, the system named is non-growing UPEC CFT073. The assay is described as follows: Dilution-regrowth assay (screen, hit validation, dose-response) on stationary-phase UPEC. Conditions: for Regrowth, OD600 at 6h or 8h after dilution into drug-free medium: average. The class given is cell-based, Escherichia coli. The essentials: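 Regrowth (OD600 after 6 h, 37 °C) of diluted non-growing CFT073, following 24 h compound treatment of 24 h stationary cultures, defines activity relative to untreated control. Screen at 20 µM, validation at 20, 10, 5 µM (duplicates), dose–response in three biological replicates fitted by five-parameter logistic.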

The subject of assay [1] is non-growing P. aeruginosa DSM1117. The assay is described as follows: Dilution-regrowth assay (OD600, start-growth-time) on stationary-phase P. aeruginosa. It counts as cell-based, Pseudomonas aeruginosa. To be noted: P. aeruginosa; for Regrowth, OD600 at 6h or 8h after dilution into drug-free medium: average; for pEC50: regrowth delay of non-growing bacteria, 1:4 CA-MHB pH 7.4, 24 h treatment, OD600 8 h after dilution, read-out: EC50. The essentials: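 Start-growth-time was taken as the point where OD600, recorded every 20 min at 37 °C over about 20 h of regrowth, passed 0.12. Before that, non-growing cultures in HEPES-buffered 1:4 CA-MHB (pH 7.4) were exposed for 24 h, with compounds at 20 μM in preliminary runs.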

Setting [2] is: Escherichia coli, pH 7.4, CA-MHB, read-out: MIC (μM) CA-MHB.
[3] abbreviates: Pseudomonas aeruginosa, DSM1117, 1:4 diluted CA-MHB pH 7.4, read-out: MIC (μM) 1:4 CA-MHB.
Setting [4] is: Pseudomonas aeruginosa, DSM1117, CA-MHB pH 7.4, read-out: MIC (μM) CA-MHB.
Setting [5] is: Pseudomonas aeruginosa, DSM1117.
The mark [6] stands for this setting: Escherichia coli, LPM pH 5.5, read-out: MIC.
Setting [7] is: Escherichia coli, E. coli, pH 7.4, regrowth delay of non-growing bacteria, 1:4 CA-MHB, 24 h treatment, OD600 6 h after 2500-fold dilution, read-out: EC50.

Structures are written as SMILES. pEC50: −log10 of the molar value. In brackets after ≈: the same amount, converted by molar mass. Read-outs that look alike come from different tables or passages of the source.

By MIC is commonly meant the least concentration at which growth counts as inhibited. Usually pEC50 stands for the negative decadic logarithm of the EC50, by convention in mol/L. For `N[C@@H]1CCCCN(c2c(F)cc3c(=O)c(C(=O)O)cn(C4CC4)c3c2Cl)C1` [Besifloxacin], the MIC with E. coli CFT073 (UPEC) (setting [2]) stood at 0.25 µM (≈ 0.0985 µg/mL); in the assay on P. aeruginosa DSM1117 (setting [3]), 8 µM (≈ 3.15 µg/mL); in the assay with P. aeruginosa DSM1117 (setting [4]) it was 4 µM (≈ 1.58 µg/mL); in the assay on S. aureus DSM2569 (Staphylococcus aureus, DSM2569), 0.25 µM (≈ 0.0985 µg/mL); in the assay with S. flexneri 5a M90T, 0.25 µM (≈ 0.0985 µg/mL). In addition, in the assay on P. aeruginosa DSM1117, the “increase of MIC in diluted CA-MHB versus CA-MHB” value was “twofold”. Besides, the “Regrowth, OD600 at 6h or 8h after dilution into drug-free medium” value in the assay with non-growing UPEC CFT073 (E. coli in 1:4 CA-MHB (pH 7.4), concentration 0.25) came out at 0.548; in the assay on non-growing UPEC CFT073 (E. coli in 1:4 CA-MHB (pH 7.4), concentration 0.5), 0.480; in the assay on non-growing UPEC CFT073 (E. coli in 1:4 CA-MHB (pH 7.4), concentration 1), 0.155; in the assay with non-growing UPEC CFT073 (E. coli in 1:4 CA-MHB (pH 7.4), concentration 2.5) it was 0.075; in the assay with non-growing UPEC CFT073 (E. coli in 1:4 CA-MHB (pH 7.4), concentration 5), 0.073; in the assay with non-growing UPEC CFT073 (E. coli in 1:4 CA-MHB (pH 7.4), concentration 10), 0.071. The “Regrowth, OD600 at 6h or 8h after dilution into drug-free medium” value turned out to be 0.073 in the assay with non-growing UPEC CFT073 (E. coli in 1:4 CA-MHB (pH 7.4), concentration 30); 0.547 in the assay on non-growing UPEC CFT073 (E. coli in LPM (pH 5.5), concentration 0.25); 0.532 with non-growing UPEC CFT073 (E. coli in LPM (pH 5.5), concentration 0.5); 0.550 with non-growing UPEC CFT073 (E. coli in LPM (pH 5.5), concentration 1); 0.548 in the assay with non-growing UPEC CFT073 (E. coli in LPM (pH 5.5), concentration 2.5); 0.531 in the assay with non-growing UPEC CFT073 (E. coli in LPM (pH 5.5), concentration 5). Moreover, the “Regrowth, OD600 at 6h or 8h after dilution into drug-free medium” value was found to be 0.531 with non-growing UPEC CFT073 (E. coli in LPM (pH 5.5), concentration 10); 0.471 with non-growing UPEC CFT073 (E. coli in LPM (pH 5.5), concentration 30); 0.563 in assay [1] (concentration 0.1); 0.201 in assay [1] (concentration 0.5); 0.091 in assay [1] (concentration 2.5); 0.090 in assay [1] (concentration 10). The pEC50 is 6.17 in the assay with non-growing UPEC CFT073 (Escherichia coli, pH 7.4) and 6.58 in assay [1] (setting [5]).

As for `O=C(O)c1cn(C2CC2)c2cc(N3CCNCC3)c(F)cc2c1=O` [Ciprofloxacin], the MIC in the assay on E. coli CFT073 (UPEC) (setting [6]) is 0.25 µM (≈ 0.0828 µg/mL); in the assay on E. coli CFT073 (UPEC) (setting [2]), 0.125 µM (≈ 0.0414 µg/mL); in the assay with P. aeruginosa DSM1117 (setting [3]), 2 µM (≈ 0.663 µg/mL); in the assay with P. aeruginosa DSM1117 (setting [4]), 2 µM (≈ 0.663 µg/mL); with S. aureus DSM2569 (Staphylococcus aureus, DSM2569) it was 2 µM (≈ 0.663 µg/mL); in the assay with S. flexneri 5a M90T, 0.0625 µM (≈ 0.0207 µg/mL). For the same compound, the values for the pEC50 (in the assay with non-growing UPEC CFT073 (setting [7]); in assay [1] (setting [5])) were 5.86 and 6.90, respectively.

Turning to `N[C@@H]1CN(c2c(F)cc3c(=O)c(C(=O)O)cn([C@@H]4C[C@@H]4F)c3c2Cl)CC12CC2` [Sitafloxacin], the minimal inhibitory concentration (MIC) in the assay on E. coli CFT073 (UPEC) (LPM pH 5.5, read-out: MIC) worked out at 0.5 µM (≈ 0.205 µg/mL); in the assay on E. coli CFT073 (UPEC) (pH 7.4, CA-MHB, read-out: MIC (μM) CA-MHB), 0.025 µM (≈ 0.0102 µg/mL); with P. aeruginosa DSM1117 (1:4 diluted CA-MHB pH 7.4, read-out: MIC (μM) 1:4 CA-MHB) it was 0.5 µM (≈ 0.205 µg/mL); in the assay with P. aeruginosa DSM1117 (CA-MHB pH 7.4, read-out: MIC (μM) CA-MHB) it was 0.5 µM (≈ 0.205 µg/mL); in the assay with S. aureus DSM2569, 0.125 µM (≈ 0.0512 µg/mL). In the assay with S. flexneri 5a M90T (S. flexneri, extracellular bacteria in TSB), the “MIC (μM) TSB” value amounted to 0.01562 µM (≈ 0.0064 µg/mL). The pEC50 is 4.97 with non-growing UPEC CFT073 (E. coli, LPM pH 5.5, regrowth delay of non-growing bacteria, 24 h treatment, OD600 6 h after 2500-fold dilution, read-out: EC50); 6.73 with non-growing UPEC CFT073 (E. coli, pH 7.4, regrowth delay of non-growing bacteria, 1:4 CA-MHB, 24 h treatment, OD600 6 h after 2500-fold dilution, read-out: EC50); 7.27 in assay [1].

Regarding `NC1CCN(c2nc3c(cc2F)c(=O)c(C(=O)O)cn3-c2ccc(F)cc2F)C1` (stereo not drawn) [Tosufloxacin], the MIC came out at 0.125 µM (≈ 0.0505 µg/mL) in the assay with E. coli CFT073 (UPEC) (setting [6]); 0.05 µM (≈ 0.0202 µg/mL) in the assay on E. coli CFT073 (UPEC) (setting [2]); 1 µM (≈ 0.404 µg/mL) with P. aeruginosa DSM1117 (setting [4]); 0.25 µM (≈ 0.101 µg/mL) in the assay on S. aureus DSM2569 (Staphylococcus aureus, DSM2569); 0.0156 µM (≈ 0.00632 µg/mL) in the assay with S. flexneri 5a M90T. Besides, the pEC50 in the assay on non-growing UPEC CFT073 (Escherichia coli, E. coli, LPM pH 5.5, regrowth delay of non-growing bacteria, 24 h treatment, OD600 6 h after 2500-fold dilution, read-out: EC50) was 4.99; in the assay on non-growing UPEC CFT073 (setting [7]), 6.12; in assay [1] (setting [5]), 6.63.
